# From paper PMC4032195 (ACS Chemical Biology, 2014)
# pIC50: −log10 of the molar value.
# How the values were obtained:
# BRD4-1 = BRD4-1 (Homo sapiens, UniProt O60885); test: biochemical; assay type: binding; conditions: IC50 (μM) BRD4-1, Alpha Screen, KAc-histone H4 peptide (K5/8/12/16Ac)
# BRDT-1 = BRDT-1 (Homo sapiens, UniProt Q58F21); test: biochemical; assay type: binding; conditions: IC50 (μM) BRDT-1, Alpha Screen, KAc-histone H4 peptide (K5/8/12/16Ac)
# BET bromodomains = conditions: cited from earlier work
# VEGFR-1 = conditions: read-out: IC50 VEGFR-1; cited from earlier work
# VEGFR-2 = conditions: read-out: IC50 VEGFR-2; cited from earlier work
structure (smiles),measurement,setting,value
COc1cc(Nc2ncc(F)c(Nc3ccc4c(n3)N(COP(=O)(O)O)C(=O)C(C)(C)O4)n2)cc(OC)c1OC [Fostamatinib],IC50,BRD4-1,> 20 µM
same,IC50,BRDT-1,> 20 µM
COc1cc(Nc2nccc(Nc3ccc4c(C)n[nH]c4c3)n2)cc(OC)c1OC [GW612286X],IC50,BRDT-1,7.6 µM
O=c1cc(N2CCOCC2)oc2c(-c3ccccc3)cccc12 [LY294002],inhibition of BET bromodomains,BET bromodomains,modest inhibitor of BET bromodomains
Cc1ccc(Nc2nccc(N(C)c3ccc4c(C)n(C)nc4c3)n2)cc1S(N)(=O)=O [Pazopanib],pIC50,VEGFR-1,8.00
